Earlier results, collected in US20090239923A1 (priority 2008, published 2009).

System: human body
Conditions: ingestion, 70 Kg human body; 90 mL = 70 g

CO [methanol]
Lethal dose: 90 mL
